The results in this text go back to article PMC5700161, “Structure of human immunoproteasome with a reversible and noncompetitive inhibitor that selectively inhibits activated lymphocytes” (Nature Communications, 2017).

Molecules are shown by their SMILES. Entries after “also recorded” stand apart in the source; their conditions may differ. Read-outs that look alike come from different tables or passages of the source.

One test deals with β1i (Homo sapiens, UniProt P28065). As to the kind of experiment: IC50 against β1i of human immunoproteasome (Ac-PAL-AMC).
For a further test, the target named is β1c (Homo sapiens, UniProt P28072). Kind of test: IC50 against β1c of human constitutive proteasome (Z-LLE-AMC).
In another test the target is β2c (Homo sapiens, UniProt Q99436). Kind of test: IC50 against β2c of human constitutive proteasome (Z-VLR-AMC).
A further test concerns the target β2i (Homo sapiens, UniProt P40306). As to the kind of experiment: IC50 against β2i of human immunoproteasome (Z-VLR-AMC).
The target in a further test is human β5i (Homo sapiens, UniProt P20618+P28062). As to the kind of experiment: IC50 determination against human β5i of i-20S. To be noted: for reduction in potency against β5i: in comparing to PKS21221.
A further test has as its target human β5c (Homo sapiens, UniProt P20618+P28074). Kind of test: IC50 determination against human β5c of c-20S.
A further test concerns the target T1, β5i (i-20S) (Homo sapiens, UniProt P20618+P28062).
T1 construct: purchased Boston Biochem
Kind of test: Kinetics studies of modality of inhibition against β5i. It is filed as biochemical. The method, then: Data as in d are shown in double reciprocal plots in e, and data from f in g. […] Data are means ± SEM of three independent experiments […]
(§1) With increasing concentrations of PKS21004, both V max and K M decreased (Fig. 1d–g and Supplementary Fig. 1). […] This class thus joins a growing list of noncompetitive proteasome inhibitors[5],[30].
Supplementary Figure 11. Inhibition kinetics of PKS21221 against i-20S β5i. (A) Steady state velocities of the Ac-ANW-AMC hydrolysis at 10, 15, 25, 35 µM by i-20S β5i (0.4 nM) in the presence of PKS21221 at indicated concentrations were determined at 37 °C and plotted by RFU versus substrate concentration (A); values of KM, Ki and α were estimated by PRISM using equation V = (Vmax / (1 + I / (α*Ki))) * S / (KM * (1+ I / Ki) / (1 + I / (α*Ki)) + S); (B) Lineweaver-Burk plot of the data in (A). (C) Plot of KM versus concentrations of PKS21221 indicates a mixed type inhibition. (D) Plot of Vmax versus concentrations of PKS21221.
(1 picture or pasted object on this page, not shown here)

Test [1] has as its target T2, β5c (c-20S) (Homo sapiens, UniProt P20618+P28074). Kind of test: Kinetics studies of modality of inhibition against β5c. It is filed as biochemical.
Source text: Data as in d are shown in double reciprocal plots in e, and data from f in g. […] Data are means ± SEM of three independent experiments
as §1

Test [2] deals with T2, β5c (c-20S). Kind of test: Reversibility: dialysis of pre-incubated c-20S and inhibitor. It is filed as biochemical. To be noted: dialysis of pre-incubated mixture of c-20S and inhibitor.
Source text: as §1

Where [3] appears, read: read-out: IC50 1i - PAL (β1i), substrate Ac-PAL-AMC.
The mark [4] stands for this setting: read-out: IC50 1c - LLE (β1c), substrate Z-LLE-AMC.
The mark [5] stands for this setting: read-out: IC50 2c - VLR (β2c), substrate Z-VLR-AMC.
[6] abbreviates: read-out: IC50 2i - VLR (β2i), substrate Z-VLR-AMC.
Setting [7] is: read-out: IC50 against human β5i.
[8] abbreviates: fit to equation for noncompetitive inhibitors.

Experimental for human β5c: (§2) IC50s of all compounds against β5i and β5c (Table 2) and against β1i, β2i, β1c, and β2c (Supplementary Table 1) were determined following reported methods[8].
Experimental for human β5i: as §2
Experimental for β1c: as §2
Experimental for β1i: as §2
Experimental for β2c: as §2
Experimental for β2i: as §2

The IC50 is the concentration needed to halve the response being measured. Consider `CC(C)(C)NC(=O)C[C@H](NC(=O)CCc1ccccc1)C(=O)NCCNC(=O)c1cc(-c2cccc(F)c2)ccc1F` [PKS21195], for which the half-maximal inhibitory concentration (IC50) at β1i (setting [3]), at β1c (setting [4]), at β2c (setting [5]) and at β2i (setting [6]) was > 50 µM in each case.

For `CC(C)(C)NC(=O)C[C@H](NC(=O)CCc1ccccc1)C(=O)NCCNC(=O)c1ccc(-c2ccccc2)cc1` [PKS21003], the IC50 at β1i is > 50 µM; against β1c, > 50 µM; against human β5i it was > 100 µM; against human β5c, > 100 µM; against β2c it was > 50 µM; on β2i it was > 50 µM. Moreover, at human β5i, the “inhibitory activity against β5i (in words)” value was “inactive”. Moreover, on human β5c, the “inhibitory activity against β5c (in words)” value is “inactive”.

For `CC(C)(C)NC(=O)C[C@H](NC(=O)CCc1ccccc1)C(=O)NCCNC(=O)c1cccc2ccccc12` [PKS3080], the half-maximal inhibitory concentration (IC50) on β1i (setting [3]) is > 50 µM; on β1c (setting [4]), > 50 µM; at human β5i (setting [7]), 0.37 µM; at human β5c (read-out: IC50 against human β5c), 1.22 µM; at β2c (setting [5]) it was > 50 µM; at β2i (setting [6]) it was > 50 µM.

In the case of `CC(C)(C)OC(=O)N[C@@H](CC(N)=O)C(=O)NCCNC(=O)c1cc(-c2ccccc2F)ccc1F` [PKS21281], the IC50 at β1i (setting [3]), on β1c (setting [4]), on β2c (setting [5]) and at β2i (setting [6]) was > 50 µM in each case. Further, the “inhibitory activity against β5i (in words)” value at human β5i was “abolished the inhibitory activities”. Also, the “inhibitory activity against β5c (in words)” value at human β5c was “abolished the inhibitory activities”.

For the compound `CC(CNC(=O)c1cccc(-c2ccccc2)c1)NC(=O)[C@H](CC(=O)NC(C)(C)C)NC(=O)CCc1ccccc1` (some centres unmarked) [PKS21018], the IC50 on β1i (setting [3]), on β1c (setting [4]), at β2c (setting [5]) and on β2i (setting [6]) was > 50 µM each time.

A word on the Ki: it is the equilibrium dissociation constant of an inhibitor or competing ligand from its target. A lower Ki goes with higher affinity. `CC(C)(C)NC(=O)C[C@H](NC(=O)CCc1ccccc1)C(=O)NCCNC(=O)c1cccc(-c2ccccc2)c1` [PKS21004]: the concentration for half-maximal inhibition (IC50) against β1i is > 50 µM; against β1c, > 50 µM; at human β5i, 0.058 µM; on human β5c, 0.326 µM; on β2c, > 50 µM; at β2i, > 50 µM. The “Hill coefficient constant, inhibition of β5i” value at human β5i was ~ 1. Besides, the “Hill coefficient constant, inhibition of β5c” value on human β5c is recorded as ~ 1. Further, the “α for β5i (αi-20S)” value on β5i (i-20S) was “≈ 0.28”. For the same compound, the α for β5i at β5i (i-20S) (as printed in legend of Fig. 1) is 0.28. Moreover, the inhibition constant (Ki) was found to be 0.077 µM on β5i (i-20S) (setting [8]) and 0.55 µM at β5c (c-20S) [1] (setting [8]). Besides, the “modality of inhibition of β5i” value on β5i (i-20S) (versus substrate) was “noncompetitively”. For the same compound, the “α for β5c (αc-20S)” value on β5c (c-20S) [1] was 0.65 and ≈ 0.65. Also, at β5c (c-20S) [1] (versus substrate), the “modality of inhibition of β5c” value is “noncompetitively”. At β5c (c-20S) [2], the “reversibility of β5c inhibition; β5c activity after dialysis” value is “reversibly inhibits; also recorded: fully restored”.

On to `Cc1ccc(S(=O)(=O)NCC(=O)NCCNC(=O)c2cc(-c3ccccc3F)ccc2F)cc1` [PKS21289], for which the half-inhibitory concentration (IC50) at β1i (setting [3]), at β1c (setting [4]), on β2c (setting [5]) and on β2i (setting [6]) was > 50 µM throughout. The “inhibitory activity against β5i (in words)” value against human β5i is on record as “eliminated inhibitory activity”. Moreover, at human β5c, the “inhibitory activity against β5c (in words)” value is “eliminated inhibitory activity”.

Take `CC(C)(C)NC(=O)C[C@H](NC(=O)CCc1ccccc1)C(=O)NCCNC(=O)c1cc(-c2ccccc2)ccc1F` [PKS21196]: the IC50 at β1i (setting [3]), at β1c (setting [4]), on β2c (setting [5]) and on β2i (setting [6]) was > 50 µM each time.

In the case of `CC(C)(C)NC(=O)C[C@H](NC(=O)CCc1ccccc1)C(=O)NCCNC(=O)c1cc(-c2ccccc2F)ccc1F` [PKS21187], the IC50 is > 50 µM on β1i (setting [3]); > 50 µM on β1c (setting [4]); 0.015 µM at human β5i (setting [7]); > 50 µM at β2c (setting [5]); > 50 µM on β2i (setting [6]). In addition, the “selectivity for β5i over β5c” value on human β5i is recorded as ~ 20 fold.

Turning to `CC(C)(C)NC(=O)C[C@H](NC(=O)CCc1ccccc1)C(=O)NCCNC(=O)c1cccc(-c2ccc(C#N)cc2)c1` [PKS21028], the concentration for half-maximal inhibition (IC50) at β1i (setting [3]), at β1c (setting [4]), at β2c (setting [5]) and at β2i (setting [6]) was > 50 µM in each case.

Take `Cc1ccc(S(=O)(=O)N[C@@H](C)C(=O)NCCNC(=O)c2cc(-c3ccccc3F)ccc2F)cc1` [PKS21290]: the half-maximal inhibitory concentration (IC50) on β1i (setting [3]), on β1c (setting [4]), on β2c (setting [5]) and at β2i (setting [6]) was > 50 µM each time. Also, the “inhibitory activity against β5i (in words)” value against human β5i is reported as “eliminated inhibitory activity”. At human β5c, the “inhibitory activity against β5c (in words)” value was “eliminated inhibitory activity”.

In the case of `CC(C)(C)NC(=O)C[C@H](NC(=O)CCc1ccccc1)C(=O)NCCNC(=O)c1ccc2ccccc2c1` [PKS21025], the IC50 on β1i (setting [3]), at β1c (setting [4]), at β2c (setting [5]) and at β2i (setting [6]) was > 50 µM each time. Moreover, the “selectivity for β5i over β5c” value on human β5i was 26 fold. Also, the “improvement of potency against β5i” value on human β5i (relative to PKS3080) came to 3 fold.

As to `CC(C)(C)NC(=O)C[C@H](NC(=O)OC(C)(C)C)C(=O)NCCNC(=O)c1cc(-c2ccccc2F)ccc1F` [PKS21277], the 50% inhibitory concentration (IC50) at β1i (setting [3]), on β1c (setting [4]), at β2c (setting [5]) and at β2i (setting [6]) was > 50 µM in each case. Also, the “inhibitory activity against β5i (in words)” value at human β5i is recorded as “modestly potent”. Also, at human β5i, the “selectivity for β5i over β5c” value worked out at 36 fold.

For `Cc1ccc(S(=O)(=O)N[C@@H](CC(N)=O)C(=O)NCCNC(=O)c2cc(-c3ccccc3F)ccc2F)cc1` [PKS21288], the IC50 at β1i (setting [3]), at β1c (setting [4]), at β2c (setting [5]) and at β2i (setting [6]) was > 50 µM each time. In addition, the “inhibitory activity against β5i (in words)” value against human β5i is “eliminated inhibitory activity”. For the same compound, the “inhibitory activity against β5c (in words)” value against human β5c is “eliminated inhibitory activity”.

Turning to `CC(C)(C)NC(=O)C[C@H](NC(=O)CCc1ccccc1)C(=O)NCCNC(=O)c1cccc(-c2ccc(F)cc2)c1` [PKS21026], the IC50 on β1i (setting [3]), on β1c (setting [4]), on β2c (setting [5]) and on β2i (setting [6]) was > 50 µM each time.

`CC(C)(C)NC(=O)C[C@H](NS(=O)(=O)C1CC1)C(=O)NCCNC(=O)c1cc(-c2ccccc2F)ccc1F` [PKS21293]: the IC50 at β1i (setting [3]), on β1c (setting [4]), on β2c (setting [5]) and on β2i (setting [6]) was > 50 µM throughout. Further, the “selectivity for β5i over β5c” value at human β5i worked out at 64 fold. Moreover, the “reduction in potency against β5i” value on human β5i came to 3.7 fold.

As for `CC(=O)N[C@@H](CC(=O)NC(C)(C)C)C(=O)NCCNC(=O)c1cc(-c2ccccc2F)ccc1F` [PKS21294], the half-maximal inhibitory concentration (IC50) on β1i (setting [3]), on β1c (setting [4]), on β2c (setting [5]) and on β2i (setting [6]) was > 50 µM each time. Further, on human β5i, the “reduction in potency against β5i” value was determined as 150 fold. Moreover, the “reduction in potency against β5c” value at human β5c (in comparing to PKS21221) worked out at 120 fold.
